Source: PubChem BioAssay (NCI)
Where “and” joins values, the source holds several entries; their conditions need not be identical. Equal entries are not always repeated.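 Method: 48-hour compound exposure of cells in 96-well plates, five concentrations, linear interpolation of endpoints. At the GI50, growth is halved. TGI marks complete inhibition of growth.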

Tests used:
Assay in all cases: NCI tumour cell line growth inhibition, 48 h
T-47D breast = system: T-47D breast
HS 578T breast = system: HS 578T breast
RPMI-8226 leukemia = system: RPMI-8226 leukemia
OVCAR-3 ovarian = system: OVCAR-3 ovarian
KM12 colon = system: KM12 colon
SR leukemia = system: SR leukemia
SF-295 CNS = system: SF-295 CNS
UACC-62 melanoma = system: UACC-62 melanoma
SK-MEL-28 melanoma = system: SK-MEL-28 melanoma
SW-620 colon = system: SW-620 colon

Structure (SMILES) | GI50 (T-47D breast) | TGI (T-47D breast) | GI50 (HS 578T breast) | TGI (HS 578T breast) | GI50 (RPMI-8226 leukemia) | TGI (RPMI-8226 leukemia) | GI50 (OVCAR-3 ovarian) | TGI (OVCAR-3 ovarian) | GI50 (KM12 colon) | TGI (KM12 colon) | GI50 (SR leukemia) | TGI (SR leukemia) | GI50 (SF-295 CNS) | TGI (SF-295 CNS) | GI50 (UACC-62 melanoma) | TGI (UACC-62 melanoma) | GI50 (SK-MEL-28 melanoma) | TGI (SK-MEL-28 melanoma) | GI50 (SW-620 colon) | TGI (SW-620 colon)
FC(F)(F)c1cccc(-c2[nH]ncc2-c2nnnn2-c2ccccc2)c1 | 4.23 µM | 24.7 µM | 4.85 µM | 28.4 µM | 3.12 µM | 13.3 µM | 2.97 µM | 10.9 µM | 4.08 µM | 22.2 µM | 1.94 µM | 5.42 µM | 2.49 µM | 9.04 µM | 4.22 µM | 15.8 µM | 5.6 µM | 19.1 µM | 3.23 µM | 12.2 µM
COC(=O)c1cc(-c2ccc(S(C)(=O)=O)cc2)[nH]c1N/N=C/c1c(Cl)cccc1Cl | 0.374 µM | > 35.7 µM | 0.318 µM | 3.45 µM | 0.491 µM | > 39.1 µM | 0.273 µM | 0.704 µM | 0.386 µM | 10 µM |  | > 100 µM | 0.281 µM | 3.24 µM | 0.391 µM | > 47.9 µM | 0.893 µM | > 58.2 µM | 0.362 µM | > 100 µM
CCN1C(=O)N(CC)C2C1N=C(SC)N2/N=C/C=C/c1ccccc1OC (centres undefined) | > 32.8 µM | > 58.8 µM | 0.422 µM | > 56.4 µM | 0.37 µM | 3.31 µM | 0.375 µM | > 54.2 µM | 0.404 µM | > 39.6 µM | 0.358 µM | 13.2 µM | 0.358 µM | > 37.4 µM | 0.492 µM | > 40.4 µM | > 32.1 µM | > 50.3 µM | 0.412 µM | > 100 µM
Cc1c(C(N)=O)sc2nc(C)n(/N=c3\scc(-c4ccccc4)n3Cc3ccccc3)c(=O)c12 | 3.25 µM | > 100 µM | 3.85 µM | > 100 µM | 13.9 µM | > 100 µM | 2.28 µM | 8.58 µM | 3.37 µM | > 100 µM | 5.74 µM | > 100 µM | 2.93 µM | > 100 µM | 4.26 µM | 83.2 µM | 3.56 µM | > 100 µM | 3.16 µM | > 100 µM
CCC(=O)Nc1nnc(Cc2ccc(OC)c(OC)c2)s1 | > 100 µM | > 100 µM | > 100 µM | > 100 µM | > 100 µM | > 100 µM | > 100 µM | > 100 µM | > 100 µM | > 100 µM | > 100 µM | > 100 µM | > 100 µM | > 100 µM | > 100 µM | > 100 µM | > 100 µM | > 100 µM | > 100 µM | > 100 µM
CNc1cc(-c2cccc(OC(F)(F)F)c2)nc2ccc(N3CCCC3)cc12 | 1.59 µM and 1.76 µM | 3.51 µM and 3.47 µM | 1.87 µM | 3.95 µM | 1.71 µM | 4.19 µM | 1.69 µM and 1.92 µM and 1.86 µM | 3.14 µM and 3.6 µM and 3.39 µM | 1.81 µM and 1.76 µM and 1.89 µM | 3.4 µM and 3.35 µM and 3.51 µM | 0.31 µM and 1.56 µM | 1.78 µM and 4.22 µM | 1.61 µM and 1.75 µM and 1.68 µM | 2.98 µM and 3.2 µM and 3.09 µM | 1.75 µM and 1.76 µM and 1.7 µM | 3.36 µM and 3.16 µM and 3.18 µM | 1.64 µM and 1.78 µM and 1.67 µM | 3.03 µM and 3.2 µM and 3.06 µM | 1.56 µM and 1.84 µM and 1.75 µM | 3.08 µM and 3.79 µM and 3.6 µM
C=CCSC(C)=O |  | > 100 µM |  | > 100 µM |  | > 100 µM |  | > 100 µM |  | > 100 µM |  | > 100 µM |  | > 100 µM |  | > 100 µM |  | > 100 µM |  | > 100 µM
Cc1cc(N(CCNc2ccnc3cc(Cl)ccc23)Cc2ccc3c(c2)OCO3)nc(N2CCCC2)n1 | 1.93 µM | 5.44 µM | 1.72 µM | 5.02 µM | 1.47 µM | 3.99 µM | 1.74 µM | 3.81 µM | 2.7 µM | 11.5 µM | 0.25 µM | 0.635 µM | 1.34 µM | 2.88 µM | 1.88 µM | 3.49 µM | 1.68 µM | 3.2 µM | 1.19 µM | 2.94 µM
Cc1c(-c2ccccn2)ccc2ccccc12 |  | > 100 µM |  | > 100 µM |  | 44.1 µM |  | > 100 µM |  | > 100 µM |  | > 100 µM |  | > 100 µM |  | > 100 µM |  | > 100 µM |  | > 100 µM
CSc1nc(SC)c2c(C)cn(COCCOC(=O)c3ccccc3)c2n1 |  | 94.5 µM |  | > 100 µM |  | > 100 µM |  | > 100 µM |  | > 100 µM |  | > 100 µM |  | > 100 µM |  | > 100 µM |  | > 100 µM |  | > 100 µM
COc1cc(C2NC(=O)C(C#N)=C(Nc3cccc(C)c3)S2)ccc1O (centres undefined) | > 100 µM | > 100 µM | > 100 µM | > 100 µM | > 100 µM | > 100 µM | > 100 µM | > 100 µM | > 100 µM | > 100 µM | > 100 µM | > 100 µM | > 100 µM | > 100 µM | > 100 µM | > 100 µM | > 100 µM | > 100 µM | > 100 µM | > 100 µM
COc1cc(C(=O)n2nc(N)c3c(C)cc(C)nc32)cc(OC)c1OC | > 65.4 µM | > 100 µM | > 100 µM | > 100 µM | > 82.1 µM | > 100 µM | > 88.9 µM | > 100 µM | 10.4 µM | > 100 µM | 0.784 µM | > 100 µM | > 100 µM | > 100 µM | 54.1 µM | > 100 µM | > 100 µM | > 100 µM | 2.48 µM | > 100 µM
